Where two headings read alike, the source gives them in different places.
Assays:
[1] = system: HIV-1 A17 (Y181C mutant, NNRTI-resistant); test: p24 antigen assay, A17 strain in PBMC; type: cell-based; conditions: Human immunodeficiency virus 1, PBMC
From the text: (§1) In vitro assays of anti-HIV-1 activity.
(§2) Viruses. 20 primary clinical isolates with genotypic and/or phenotypic NRTI-resistance (isolated in the laboratory of D. Richman) and 10 clinical isolates with phenotypic stavudine (d4T) resistance (obtained through the AIDS Research and Reference Reagent Program, NIAID) were used in the current study. The HIV-1 strains HTLVIIIB (wildtype RT, NRTI-sensitive, NNRTI-sensitive), A17 (Y181 C mutant, NNRTI-resistant), A17-variant (Y181C+K103N mutant, NNRTI-resistant), and RT-MDR (M41 L, V106N, T215Y; NRTI-resistant, NNRTI-resistant) were also obtained from the AIDS Research and Reference Reagent Program, NIAID.
(§3) Antiviral susceptibility assays.

HIV-1 (strain: HTLVIIIB) = test: microbe, parasite or virus in culture; type: cell-based
Method: (§4) Percent inhibition of viral replication was calculated by comparing the p24 and RT activity values from the test substance-treated infected cells with those from untreated infected cells. In parallel, the cytotoxicity of the compounds was examined using a microculture tetrazolium assay (MTA) of cell proliferation, as described.in the Zarling, Enrice, and Uckun articles Supra).
(§5) Cellular Assays of Anti-HIV Activity and Cytotoxicity. […] Percent viral inhibition was calculated by comparing the RT activity values from the test substance-treated infected cells with RT values from untreated infected cells (i.e., virus controls).

HIV-1 HTLVIIIB = test: microbe, parasite or virus in culture
How it was run: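 PHA- and IL-2-stimulated human PBMC from HIV-negative donors were infected with HIV-1 (MOI 0.001–0.1, 1 h, 37 °C) and cultured with compound (0.0001–100 μM). Supernatant p24 was measured by EIA on day 6 or 7; percent inhibition was calculated against untreated infected controls and IC50 was derived from it.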

in vitro = conditions: human
Method: as §4, §5

[2] = system: HIV-1 (HTLVIIIB) in TK-deficient CEM T-cells; test: Inhibition of HIV-1 replication in TK-deficient CEM T-cells (p24 / RT activity); type: cell-based
Method: as §4, §5

[3] = system: HIV-1 A17-variant (Y181C+K103N mutant, NNRTI-resistant); test: p24 antigen assay, A17-variant strain in PBMC; type: cell-based; conditions: Human immunodeficiency virus 1, PBMC
From the text: as §1, §2, §3

[4] = Human immunodeficiency virus 1, PBMC
[5] = Human immunodeficiency virus 1, PBMC, in Homo sapiens, read-out: IC50, compound 1c compared to zidovudine
[6] = Human immunodeficiency virus 1, PBMC, in Homo sapiens, read-out: IC90, compound 1c compared to zidovudine
[7] = Human immunodeficiency virus 1, read-out: IC50 HTLVIIIB
[8] = Human immunodeficiency virus 1, CCRF-CEM, TK-deficient CEM cells, read-out: IC50 value for inhibition of RT activity
[9] = Human immunodeficiency virus 1, T-cell, TK-deficient CEM T-cells, Table 5, read-out: CEM IC50 [RT]
[10] = Human immunodeficiency virus 1, PBMC, read-out: IC50 value for inhibition of RT activity, peripheral blood mononuclear cells
[11] = Human immunodeficiency virus 1, read-out: IC50 [RT], PBMNC, unit not printed in Table 2 (0.040 = 40 nM)
[12] = Human immunodeficiency virus 1, read-out: IC50 [p24], PBMNC, unit not printed in Table 2 (0.018 = 18 nM)
[13] = Human immunodeficiency virus 1, read-out: PBMNC IC50 [RT], PBMNC, unit not given in Table 5 (0.04 = 40 nM)
[14] = Human immunodeficiency virus 1, CCRF-CEM, TK-deficient CEM cells, read-out: IC50 value for inhibition of p24 production
[15] = Human immunodeficiency virus 1, T-cell, TK-deficient CEM, unit not printed in Table 2 (0.556 = 556 nM), read-out: IC50 [p24]
[16] = Human immunodeficiency virus 1, T-cell, TK-deficient CEM, unit not printed in Table 2 (2.355 = 2355 nM), read-out: IC50 [RT]

Row | SMILES | IC50 ([1]; read-out: IC50 A17) | SI(CC50/IC50) (HIV-1 HTLVIIIB) | IC50 (HIV-1 HTLVIIIB; [4]) | IC90 (HIV-1 HTLVIIIB; [4]) | IC50 (HIV-1 HTLVIIIB; [5]) | IC90 (HIV-1 HTLVIIIB; [6]) | IC50 (HIV-1 HTLVIIIB; [7]) | IC50 [2, 8] | IC50 [2, 9] | IC50 ([3]; read-out: IC50 A17V) | IC50 [1] | IC50 (HIV-1 (strain: HTLVIIIB); [10]) | IC50 (HIV-1 (strain: HTLVIIIB); [11]) | IC50 (HIV-1 (strain: HTLVIIIB); [12]) | IC50 (HIV-1 (strain: HTLVIIIB); [13]) | IC50 [2, 14] | IC50 [2, 15] | IC50 [2, 16] | IC50 [3] | also measured
1 | Cc1cn([C@H]2C[C@H](N=[N+]=[N-])[C@@H](CO)O2)c(=O)[nH]c1=O [AZT, 3′-azido-3′-deoxythymidine] | 0.055 nM | 31,867 | 3 ± 1 nM | 93 ± 34 nM | 3 ± 1 nM | 93 ± 34 nM | 4 ± 1 nM | 200 nM | 200 nM | 0.005 nM |  |  |  |  |  |  |  |  |  | IC50 (HIV-1 (strain: HTLVIIIB); Human immunodeficiency virus 1, PBMC, peripheral blood mononuclear cells, read-out: IC50 value for inhibition of RT activity): 3 nM; IC50 (HIV-1 (strain: HTLVIIIB); Human immunodeficiency virus 1, PBMNC, unit not given in Table 5 (0.04 = 40 nM), read-out: PBMNC IC50 [RT]): 3 nM; IC50 (in vitro; CEM IC50 [MTA]): > 10000 nM
2 | COC(=O)C(C)NP(=O)(OC[C@@H]1C=C[C@H](n2cc(C)c(=O)[nH]c2=O)O1)Oc1ccc(Br)cc1 (stereo partly drawn) [Compound 1c, d4T-5′-[p-bromo-phenylmethoxyalaninyl phosphate]] | 36 ± 21 nM |  | 1 nM | 52 ± 24 nM | 1 nM | 45 ± 28 nM | 1 nM | 57 nM | 60 nM | 47 ± 27 nM | < 1 nM | 42 nM | 42 nM | 22 nM | 40 nM | 44 nM | 44 nM | 57 nM | < 1 nM | IC50 (in vitro): > 10000 nM
3 | Cc1cn([C@H]2C=C[C@@H](CO)O2)c(=O)[nH]c1=O [d4T, 2′,3′-didehydro-2′,3′-dideoxythymidine] |  | 196 | 23 ± 8 nM | 1470 ± 614 nM |  |  | 18 nM | 2360 nM | 2400 nM |  |  | 40 nM | 40 nM | 18 nM | 40 nM | 556 nM | 556 nM | 2360 nM |  | IC50 (HIV-1 (strain: HTLVIIIB); Human immunodeficiency virus 1, PBMC, read-out: IC50 value for inhibition of p24 production, peripheral blood mononuclear cells): 18 nM; IC50 (HIV-1 (strain: HTLVIIIB); Human immunodeficiency virus 1, read-out: PBMNC IC50 [RT], PBMNC, Table 4): 4 nM; IC50 (in vitro; IC50 [MTA]): > 10000 nM; IC50 ([2]; Human immunodeficiency virus 1, T-cell, read-out: CEM IC50 [RT], TK-deficient CEM T-cells, Table 4): 2340 nM
4 | Cc1ccnc2c1NC(=O)c1cccnc1N2C1CC1 [nevirapine] |  |  | 24 ± 7 nM | 1100 ± 478 nM |  |  |  |  |  |  | 47000 ± 7000 nM |  |  |  |  |  |  |  | 32000 ± 7000 nM | SI(CC50/IC50) (HIV-1 HTLVIIIB; HTLVIIIB, PBMC): 213

Reference: patent publication US20070015733A1, “Aryl Phosphate Derivatives of d4T having Activity Against Resistant HIV Strains” (Parker Hughes Institute, priority 1998, published 2007)
